This data set can be described thus: Particle size distribution by laser diffraction (Sympatec, Fraunhofer mode). In kind it is physicochemical. The note with it: for optical diameter that 50% by volume of the micronized particles are smaller than / optical diameter that 90% by volume of the micronized particles are smaller than: micronized active agent particles.
Setting [1] is: Example 4, Table 2, micronized API.
Where [2] appears, read: Example 9, Table 9, primary particle size.
Setting [3] is: Example 10, Table 11, Triple GFM primary particle size.
Where [4] appears, read: Example 10, Table 12, Triple TFM primary particle size.

Consider `COc1ccc(C[C@@H](C)NC[C@H](O)c2ccc(O)c(NC=O)c2)cc1` (racemic) [Coarse FF API, (±)-2-hydroxy-5-[(1RS)-1-hydroxy-2-[[(1RS)-2-(4-methoxyphenyl)-1-methylethyl]-amino]ethyl]formanilide], for which the Span under setting [1] was determined as 2.0.

Regarding `COc1ccc(C[C@@H](C)NC[C@H](O)c2ccc(O)c(NC=O)c2)cc1` (racemic) [FF API, (±)-2-hydroxy-5-[(1RS)-1-hydroxy-2-[[(1RS)-2-(4-methoxyphenyl)-1-methylethyl]-amino]ethyl]formanilide], the Span came out at 1.8 under setting [2]; 1.9 under setting [3]; 1.9 under setting [4]; 1.8 (Example 11, Table 14).

Regarding `COc1ccc(C[C@@H](C)NC[C@H](O)c2ccc(O)c(NC=O)c2)cc1` (racemic) [Fine FF API, (±)-2-hydroxy-5-[(1RS)-1-hydroxy-2-[[(1RS)-2-(4-methoxyphenyl)-1-methylethyl]-amino]ethyl]formanilide], under setting [1], the Span stood at 1.5 and the “d90 (μm)” value was 2.3 μm.

For the compound `CCC(=O)O[C@]1(C(=O)SCF)[C@H](C)C[C@H]2[C@@H]3C[C@H](F)C4=CC(=O)C=C[C@]4(C)[C@@]3(F)[C@@H](O)C[C@@]21C` [FP, S-(fluoromethyl)6^α,9-difluoro-11^β-17-dihydroxy-16^α-methyl-3-oxoandrosta-1,4-diene-17^β-carbothioate, 17-propionate], the “optical diameter that 50% by volume of the micronized particles are smaller than” value (“optical diameter that 50% by volume” below) turned out to be 2.6 μm and the “optical diameter that 90% by volume of the micronized particles are smaller than” value (“optical diameter that 90% by volume” for short) turned out to be 6.6 μm.

Turning to `C[C@@H]1C[C@H]2[C@@H]3CCC4=CC(=O)C=C[C@]4(C)[C@@]3(Cl)[C@@H](O)C[C@]2(C)[C@@]1(OC(=O)c1ccco1)C(=O)CCl` [MF, 9α,21-dichloro-11β,17-dihydroxy-16α-methylpregna-1,4-diene-3,20-dione 17-(2-furoate)], the “optical diameter that 50% by volume” value was 1.6 μm and the “optical diameter that 90% by volume” value is recorded as 3.5 μm. Further, under setting [2], the Span is given as 2.2, the “×10 (μm)” value is listed as 0.4 μm, the “×50 (μm)” value is on record as 1.1 μm and the “×90 (μm)” value was 2.8 μm. In addition, under setting [3], the Span was found to be 1.9, the “d10 (μm)” value came out at 0.4 μm, the “d50 (μm)” value is 1.0 μm and the “d90 (μm)” value is on record as 2.3 μm. In addition, under setting [4], the Span is recorded as 2.2, the “d10 (μm)” value stood at 0.4 μm, the “d50 (μm)” value is given as 1.1 μm and the “d90 (μm)” value turned out to be 2.8 μm.

Take `C[N+]1(C)[C@@H]2C[C@@H](OC(=O)C(O)(c3cccs3)c3cccs3)C[C@H]1[C@@H]1O[C@@H]12` [Micronized Tiotropium Bromide Anhydrous, tiotropium bromide]: under setting [4], the Span was determined as 2.7, the “d10 (μm)” value is given as 0.5 μm, the “d50 (μm)” value was 1.3 μm and the “d90 (μm)” value came to 3.9 μm.

As to `OCc1cc(C(O)CNCCCCCCOCCCCc2ccccc2)ccc1O` (stereo not drawn) [SX, 4-hydroxy-α1-[[[6-(4-phenylbutoxy)hexyl]amino]methyl]-1,3-benzenedimethanol, 1-hydroxy-2-naphthalenecarboxylate], the “optical diameter that 50% by volume” value was 2 μm and the “optical diameter that 90% by volume” value is given as 3.9 μm.

These data come from patent US9415009B2 (Pearl Therapeutics, Inc., priority 2009, dated 2016).
